Assay results: ChEMBL document CHEMBL1157499, “Synthesis and biological evaluation of 1-(benzenesulfonamido)-2-[5-(N-hydroxypyridin-2(1H)-one)]acetylene regioisomers: a novel class of 5-lipoxygenase inhibitors” (Bioorg Med Chem Lett, 2008)
Calls of active or inactive are those of the source. The rule behind the calls is not given here.

System: Rattus norvegicus
Experiment: Antiinflammatory activity against carrageenan-induced paw edema in po dosed rat after 3 hrs
Format: functional

| Structure (SMILES) | ED50 | Activity |
| --- | --- | --- |
| NS(=O)(=O)c1ccccc1C#Cc1ccc(=O)n(O)c1 | 86 mg/kg | – |
| NS(=O)(=O)c1ccc(C#Cc2ccc(=O)n(O)c2)cc1 | – | inactive |
| NS(=O)(=O)c1cccc(C#Cc2ccc(=O)n(O)c2)c1 | – | inactive |
